Assay results taken from patent publication US6514509B2, “Method for production on the spot of a disinfectant peracetic acid system” (Farmec S.n.c. di Tabasso Renato & C., priority 1998, dated 2003).
Read-outs that look alike come from different tables or passages of the source.

How the values were obtained:
[1] = properties of commercial hydrogen peroxide; cited from earlier work
[2] = properties of commercial hydrogen peroxide; cited from earlier work; remark: listed apart in the source
[3] = properties of commercial hydrogen peroxide; cited from earlier work; remark: listed apart in the source
[4] = properties of commercial hydrogen peroxide; cited from earlier work; remark: listed apart in the source
[5] = cited from earlier work
[6] = test system: spores of bacillus subtilis; conditions: alcohol at concentrations of about 20% (or higher); cited from earlier work
[7] = Specific gravity of the solutions at 20° C.; type: physicochemical
Protocol: (§1) The above listed components were weighed separately, taking particular care with the concentrated sulfuric acid, which must be handled under a hood and with protection gloves. The components were mixed in the above listed sequence, making sure that the component being dealt with was perfectly mixed before adding the next one. After addition of the components, the mixture was stirred for 15 minutes, left to rest for 10 minutes and a sample was retrieved for checking its chemical and physical properties.
(§2) The following chemical-physical properties were measured: […]

[8] = pH (10% w/w in deionized water) at 20° C.; type: physicochemical
Protocol: as §1, §2

Miscibility in water = type: physicochemical
Protocol: as §1, §2

[9] = test system: Gram + and Gram − bacteria, fungi and yeasts; conditions: cited from earlier work
Enterovirus = conditions: cited from earlier work
Poliovirus = conditions: cited from earlier work
Bacterial spores = conditions: cited from earlier work
[10] = cited from earlier work; remark: listed apart in the source

OO [Hydrogen peroxide, 35% w/w, Hydrogen peroxide]
Specific gravity at 20° C. [1]: 1.132 g/mL | pH (10% w/w in deionized water) at 20° C. [2]: 2.00-3.00 U of pH | Miscibility in water [3]: full | Vapor pressure at 20° C. [4]: 17-20 mbar

OO [hydrogen peroxide]
loss of active ingredient per year ([5]; hydrogen peroxide (30 to 90%), per year): less than 1%

CC(C)O [Isopropyl alcohol]
effect with PAA as regards its germicidal activity [6]: synergistic effect

OO [Hydrogen peroxide, 50% w/w, Hydrogen peroxide]
Specific gravity at 20° C. [7]: 1.280 g/mL | pH (10% w/w in deionized water) at 20° C. [8]: 2.00-3.00 U of pH | Miscibility in water (Miscibility in water): full

CCO [Ethyl alcohol]
effect with PAA as regards its germicidal activity [6]: synergistic effect

CC(=O)OO [PAA, peracetic acid]
loss of active ingredient per month ([5]; 40% w/w solution, per month): 1 to 2% | Contact times ([9]; 100 ppm PAA): ≤ 5 min | Effect on medical and surgical instruments ([9]; 100 ppm PAA): Low-level disinfection | Contact times ([9]; in the presence of organic material, 200-500 ppm PAA): ≤ 5 min | Effect on medical and surgical instruments ([9]; in the presence of organic material): Low-level disinfection | Ppm (%) of PAA ([9]; inactivated and killed in the presence of organic material): 200-500 Ppm | Ppm (%) of PAA ([9]; microorganisms are inactivated and killed): 100 (0.01%) Ppm | Contact times (Enterovirus; 2000 ppm PAA): 10 to 30 min | Ppm (%) of PAA (Enterovirus): 2000 (0.2%) Ppm | Contact times (Poliovirus): 15 min | Ppm (%) of PAA (Poliovirus): 1500-2250 Ppm | Effect on medical and surgical instruments (Bacterial spores): Sterilization | Ppm (%) of PAA (Bacterial spores): 500-30,000 Ppm | Contact times (Bacterial spores; lower end of the 500-30,000 ppm range): 15 min | Contact times (Bacterial spores; upper end of the 500-30,000 ppm range): 0.25 min | solubility in water [10]: infinite
